Experimental data: patent US20060014231A1, “Methods and compositions to promote bone homeostasis” (priority 2004, published 2006)

Biological target: T1, NR1H2 (Homo sapiens, UniProt P55055)
T1 construct: amplification of the complete open reading frame from ATG start codon to the stop codon of drugable genes; expressed in transfected cells; host or cells: primary human bone-marrow MPCs, adenoviral transduction (Ad5-NR1H2 with Ad-hCAR)
T1 sequence (P55055 1-460): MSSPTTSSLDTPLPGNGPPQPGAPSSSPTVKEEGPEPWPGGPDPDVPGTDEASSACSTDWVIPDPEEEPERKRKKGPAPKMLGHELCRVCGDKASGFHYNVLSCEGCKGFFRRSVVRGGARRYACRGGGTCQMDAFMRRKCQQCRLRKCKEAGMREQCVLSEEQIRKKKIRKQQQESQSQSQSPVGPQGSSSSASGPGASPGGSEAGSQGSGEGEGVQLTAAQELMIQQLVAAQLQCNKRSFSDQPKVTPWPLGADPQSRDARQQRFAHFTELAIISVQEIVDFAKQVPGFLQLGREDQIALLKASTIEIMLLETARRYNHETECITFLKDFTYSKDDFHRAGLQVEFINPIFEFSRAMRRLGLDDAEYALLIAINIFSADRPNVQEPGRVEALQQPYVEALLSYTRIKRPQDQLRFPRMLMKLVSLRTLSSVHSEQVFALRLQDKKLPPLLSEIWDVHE
Experiment: Alkaline phosphatase (AP) assay in MPCs infected with Ad-NR1H2 and treated with ligand
Format: cell-based
Conditions: MPCs infected with Ad-NR1H2, increasing ligand concentrations, MUP readout after 7, 10 and 13 days
Method: (§1) After 6 days, medium is removed and replaced with fresh medium containing the same concentrations of the compound T0901317. Readouts of AP activity are performed at several time points after the start of the experiment, typically after 7, 10 and 13 days. Up-regulation of alkaline phosphatase activity is read as follows: medium is removed from the monolayers, 15 μl MUP is added to each well, the plates are incubated for 15 min at 37° C. and then read for AP activity using a fluorescence plate reader (Fluostar, BMG).
as §1, with “MPCs are seeded on day 0 at 1000 cells per well of a 384 well plate and co-infected the next day using AdC51-hCAR (MOI 250) and different MOIs of Ad5-NR1H2 (MOI 2000, 666). On day 1, 9 concentrations (1.52E-9M, 4.57E-9M, 1.37E-8M, 4.12E-8M, 1.23E-7M, 3.7E-7M, 1.11E-6M, 3.33E-6M, 1E-5M) of the compound GW3965 with fixed vehicle concentration (DMSO at final concentration of 0.161%) are added to the wells. After” for “After”, “GW3965.” for “T0901317.”
as §1, with “APD.” for “T0901317.”

up-regulation of alkaline phosphatase (AP) activity: dose-response relation
Compound: O=S(=O)(c1ccccc1)N(CC(F)(F)F)c1ccc(C(O)(C(F)(F)F)C(F)(F)F)cc1 [T0901317]
